Results reported in patent US20100056515A1, “BENZIMIDAZOLE COMPOUNDS” (priority 2006, published 2010).

How the values were obtained:
human CRF receptor = target: T1, human CRF receptor (Homo sapiens, UniProt P34998); assay: Measurement of CRF Binding Inhibitory Rate (receptor binding experiment with 125I-CRF); settings: human CRF receptor expressing CHO cellular membrane fraction; 50 pM ovine 125I-CRF; 0.05 nM to 10 μM of compound; room temperature 1.5 hr; read-out: IC50 values (CRF binding inhibition)
T1 construct: expressed in transfected cells; host or cells: CHO cells (membrane fraction)
T1 sequence (P34998 24-415): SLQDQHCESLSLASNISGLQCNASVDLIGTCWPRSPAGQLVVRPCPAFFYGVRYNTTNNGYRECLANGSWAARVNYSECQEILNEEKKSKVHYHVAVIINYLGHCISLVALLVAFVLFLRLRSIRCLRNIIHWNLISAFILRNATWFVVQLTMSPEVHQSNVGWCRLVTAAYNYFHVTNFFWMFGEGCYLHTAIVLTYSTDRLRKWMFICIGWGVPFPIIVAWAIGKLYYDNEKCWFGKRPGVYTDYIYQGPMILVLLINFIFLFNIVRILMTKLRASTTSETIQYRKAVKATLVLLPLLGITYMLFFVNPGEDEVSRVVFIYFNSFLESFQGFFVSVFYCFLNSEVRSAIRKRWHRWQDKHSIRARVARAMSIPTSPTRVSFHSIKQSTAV
Experimental: Measurement of CRF Binding Inhibitory Rate
A receptor binding experiment was carried out using a human CRF receptor expressing CHO cellular membrane fraction and ovine CRF, [^125I]-tyr^0(^125I-CRF). 1000 nM of a test compound was incubated with 1 μg of human CRF receptor expressing CHO cellular membrane fraction and 50 pM of ^125I-CRF in a binding assay buffer (50 mM Tris-HCl, 5 mM EDTA, 10 mM MgCl2, 0.05% CHAPS, 0.1% BSA, 0.5 mM PMSF, 0.1 μg/mL pepstatin, 20 μg/mL leupeptin, pH 7.5). In addition, for measuring nonspecific binding (NSB), 0.1 μM unlabelled human Urocortin was incubated with 5 μg of human CRF receptor expressing CHO cellular membrane fraction and 50 pM of ^125I-CRF in a binding assay buffer. After a binding reaction was carried out at room temperature for 1.5 hr, the membrane was entrapped on a glass filter (UniFilter plate GF-C/Perkin Elmer) by suction filtration using a cell harvester (Perkin Elmer), and washed with ice-cooled 50 mM Tris-HCl (pH 7.5). After drying the glass filter, a liquid scintillation cocktail (Microscinti 0, Perkin Elmer) was added, and the radioactivity of ^125I-CRF remaining on a glass filter was measured using Topcount (Perkin Elmer).
(TB-SB)/(TB-NSB)×100 (SB: radioactivity when a compound is added, TB: maximum binding radioactivity, NSB: nonspecific binding radioactivity) were calculated to obtain binding inhibitory rates under the range of the presence from 0.05 nM to 10 μM of each compounds. The IC50 values were calculated by using GraphPad Prism software.

Structure (SMILES) | IC50 (human CRF receptor) [nM] | melting point [°C]
CCC(CC)c1ccc(Cl)c2nc(Oc3c(Cl)cc(OC(F)(F)F)cc3[S+](C)[O-])n(C)c12 (stereo not shown) [Example 43, 4-Chloro-2-[2-chloro-6-(methylsulfinyl)-4-(trifluoromethoxy)phenoxy]-7-(1-ethylpropyl)-1-methyl-1H-benzimidazole] | < 1000 | 150 to 151
CCC(CC)c1ccc(OC)c2nc(Oc3ccc(N(C)C)cc3Cl)n(C)c12 [Example 3, 3-Chloro-4-{[7-(1-ethylpropyl)-4-methoxy-1-methyl-1H-benzimidazol-2-yl]oxy}-N,N-dimethylaniline] | < 1000 | 122 to 123
CCC(CC)c1ccc(Cl)c2nc(Oc3c(Cl)cc(OC(F)(F)F)cc3S(C)(=O)=O)n(C)c12 [Example 44, 4-Chloro-2-[2-chloro-6-(methylsulfonyl)-4-(trifluoromethoxy)phenoxy]-7-(1-ethylpropyl)-1-methyl-1H-benzimidazole] | < 1000 | 164 to 165
CCC(CC)c1ccc(Cl)c2nc(Oc3c(Cl)cc(Cl)cc3N(C)C)n(C)c12 [Example 24, 3,5-Dichloro-2-{[4-chloro-7-(1-ethylpropyl)-1-methyl-1H-benzimidazol-2-yl]oxy}-N,N-dimethylaniline] | < 1000 | 172 to 173
CCC(CC)c1ccc(Cl)c2nc(Nc3c(C)cc(Cl)cc3[S+](C)[O-])n(C)c12 (stereo not shown) [Example 51, 4-Chloro-N-[4-chloro-2-methyl-6-(methylsulfinyl)phenyl]-7-(1-ethylpropyl)-1-methyl-1H-benzimidazol-2-amine] | < 1000 | 212 to 213
CCC(CC)c1ccc(OC)c2nc(Oc3ccc(C(F)(F)F)cc3N(C)C)n(C)c12 [Example 12, 2-{[7-(1-Ethylpropyl)-4-methoxy-1-methyl-1H-benzimidazol-2-yl]oxy}-N,N-dimethyl-5-(trifluoromethyl)aniline] | < 1000 | 131 to 133
CCC(CC)c1ccc(Cl)c2nc(Oc3c(Cl)cc(Cl)cc3N3CCOCC3)n(C)c12 [Example 25, 4-Chloro-2-(2,4-dichloro-6-morpholin-4-ylphenoxy)-7-(1-ethylpropyl)-1-methyl-1H-benzimidazole] | < 1000 | 155 to 157
CCC(CC)c1ccc(OC)c2nc(Oc3ccc(Cl)cc3N(C)C)n(C)c12 [Example 4, 5-Chloro-2-{[7-(1-ethylpropyl)-4-methoxy-1-methyl-1H-benzimidazol-2-yl]oxy}-N,N-dimethylaniline] | < 1000 | 122 to 123
CCC(CC=O)c1ccc(Cl)c2nc(Oc3c(C)cc(Cl)cc3Cl)n(C)c12 (stereo not shown) [Example 98, 3-[4-Chloro-2-(2,4-dichloro-6-methylphenoxy)-1-methyl-1H-benzimidazol-7-yl]pentanal] | < 1000 | 157 to 158
CCC(CC)c1ccc(OC)c2nc(Nc3ccc(Cl)cc3Br)n(C)c12 [Example 19, N-(2-Bromo-4-chlorophenyl)-7-(1-ethylpropyl)-4-methoxy-1-methyl-1H-benzimidazol-2-amine] | < 1000 | 193 to 195
CCC(CC)c1ccc(Cl)c2nc(Oc3c(Cl)cc(OC(F)(F)F)cc3SC)n(C)c12 [Example 42, 4-Chloro-2-[2-chloro-6-(methylthio)-4-(trifluoromethoxy)phenoxy]-7-(1-ethylpropyl)-1-methyl-1H-benzimidazole] | < 1000 | 138 to 139
CCC(CC)c1ccc(OC)c2nc(Oc3c(Cl)cc(Cl)cc3CN(C)C)n(C)c12.Cl [Example 77, 1-(3,5-Dichloro-2-{[7-(1-ethylpropyl)-4-methoxy-1-methyl-1H-benzimidazol-2-yl]oxy}phenyl)-N,N-dimethylmethanamine] | < 1000 | 169 to 170
CCC(CC)c1ccc(Cl)c2nc(Nc3c(C)cc(SC)cc3OC)n(C)c12 [Example 45, 4-Chloro-7-(1-ethylpropyl)-N-[2-methoxy-6-methyl-4-(methylthio)phenyl]-1-methyl-1H-benzimidazol-2-amine] | < 1000 | 223 to 225
CCC(CC)c1cccc2nc(Oc3c(C)cc(Cl)cc3Cl)n(C)c12 [Example 91, 2-(2,4-Dichloro-6-methylphenoxy)-7-(1-ethylpropyl)-1-methyl-1H-benzimidazole] | < 1000 | 91 to 92
CCC(CC)c1ccc(OC)c2nc(Oc3ccc(C(C)=O)cc3C)n(C)c12 [Example 6, 1-(4-{[7-(1-Ethylpropyl)-4-methoxy-1-methyl-1H-benzimidazol-2-yl]oxy}-3-methylphenyl)ethanone] | < 1000 | 114 to 115
CCC(CO)c1ccc(Cl)c2nc(Oc3c(C)cc(Cl)cc3Cl)n(C)c12 (stereo not shown) [Example 94, 2-[4-Chloro-2-(2,4-dichloro-6-methylphenoxy)-1-methyl-1H-benzimidazol-7-yl]butan-1-ol] | < 1000 | 208 to 209
CCC(CC)c1ccc(OC)c2nc(Oc3ccc(C)nc3N(C)C)n(C)c12 [Example 5, 3-{[7-(1-Ethylpropyl)-4-methoxy-1-methyl-1H-benzimidazol-2-yl]oxy}-N,N,6-trimethylpyridin-2-amine] | < 1000 | 143 to 144
CCC(CC)c1ccc(Cl)c2nc(Oc3c(C)cc(S(C)(=O)=O)cc3Cl)n(C)c12 [Example 38, 4-Chloro-2-[2-chloro-6-methyl-4-(methylsulfonyl)phenoxy]-7-(1-ethylpropyl)-1-methyl-1H-benzimidazole] | < 1000 | 199 to 200
CCC(CC)c1ccc(OC)c2nc(Oc3c(Cl)cc(Cl)cc3CN3CCCC3C)n(C)c12.Cl (stereo not shown) [Example 80, 2-{2,4-Dichloro-6-[(2-methylpyrrolidin-1-yl)methyl]phenoxy}-7-(1-ethylpropyl)-4-methoxy-1-methyl-1H-benzimidazole] | < 1000 | 171 to 173
CCC(CC)c1ccc(Cl)c2nc(Oc3c(Cl)cc(Cl)cc3S(N)(=O)=O)n(C)c12 [Example 32, 3,5-Dichloro-2-{[4-chloro-7-(1-ethylpropyl)-1-methyl-1H-5 benzimidazol-2-yl]oxy}benzenesulfonamide] | < 1000 | 133 to 134
CCC(CC)c1ccc(OC)c2nc(Oc3c(Cl)cc(Cl)cc3CN3CCCC3)n(C)c12.Cl [Example 79, 2-[2,4-Dichloro-6-(pyrrolidin-1-ylmethyl)phenoxy]-7-(1-ethylpropyl)-4-methoxy-1-methyl-1H-benzimidazole] | < 1000 | 183 to 185
CCC(CC)c1ccc(Cl)c2nc(Oc3c(Cl)cc(Cl)cc3CN(C)C)n(C)c12 [Example 86, 1-(3,5-Dichloro-2-{[4-chloro-7-(1-ethylpropyl)-1-methyl-1H-1-benzimidazol-2-yl]oxy}phenyl)-N,N-dimethylmethanamine] | < 1000 | 149 to 151
CCC(CC)c1ccc(Cl)c2nc(Oc3c(C)cc(S(N)(=O)=O)cc3Cl)n(C)c12 [Example 40, 3-Chloro-4-{[4-chloro-7-(1-ethylpropyl)-1-methyl-1H-benzimidazol-2-yl]oxy}-5-methylbenzenesulfonamide] | < 1000 | 293 to 294
CCC(CC)c1ccc(Cl)c2nc(Oc3c(C)cc(C(C)=O)cc3Cl)n(C)c12 [Example 35, 1-(3-Chloro-4-{[4-chloro-7-(1-ethylpropyl)-1-methyl-1H-benzimidazol-2-yl]oxy}-5-methylphenyl)ethanone] | < 1000 | 160 to 161
CCC(CC)c1ccc(OC)c2nc(Oc3ccc(OC(F)(F)F)cc3CN(C)C)n(C)c12 [Example 13, 1-[2-{[7-(1-Ethylpropyl)-4-methoxy-1-methyl-1H-benzimidazol-2-yl]oxy}-5-(trifluoromethoxy)phenyl]-N,N-dimethylmethanamine] | < 1000 | 95 to 97
CCC(CC)c1ccc(OC)c2nc(Oc3ccc(OC(F)(F)F)cc3N(C)C)n(C)c12 [Example 30, 2-{[7-(1-Ethylpropyl)-4-methoxy-1-methyl-1H-benzimidazol-2-yl]oxy}-N,N-dimethyl-5-(trifluoromethoxy)aniline] | < 1000 | 93 to 95
